Measurements from patent US11306122B2, “Compositions and methods of inhibiting the binding of plasma IgG autoantibodies to serotonin 2A receptor” (United States Government As Represented By The Department …, priority 2019, dated 2022).
“Also recorded” adds a separate entry of the source. Ends that are not written are not given here.

Tests used:
N2A cells [1] = assay: Neurite retraction in N2A cells induced by 5-HT2AR agonists (DOI, serotonin); type: cell-based, mouse
Source text: The mGlu2/3R agonist LY379268 was previously reported to cause positive allosteric modulation of the 5HT2AR protomer affinity at 5HT2AR/mGlu2R heteromers (González-Maeso J, et al., Nature. 2008; 452(7183):93-97).

[2] = tested on: mouse N2A neuroblastoma cells; assay: Acute N2A neurite retraction induced by TBI patient 5-HT2A receptor autoantibodies; type: cell-based; details: for effect on TBI autoantibody-induced acute neurite retraction: M100907 250-500 nM, Y27632 10 μM, other concentrations as in Table 17; for % of autoantibody Neurite Retraction from TBI patients: 60 nM IgG of representative TBI patient
Procedure: Acute neurite retraction. Mouse N2A neuroblastoma cells were maintained in Dulbecco's minimal essential medium with 10% fetal calf serum. […] Neurite retraction represents average neurite length-shortening after five minutes exposure to TBI (5-HT2A receptor) autoantibodies (60-100 nM) in the presence or absence of various G-protein coupled receptor (GPCR) or signaling pathway antagonists.
A 60 nanomolar concentration of the IgG autoantibodies (e.g., 5-HT2A receptor autoantibodies) from a representative TBI patient was incubated with N2A cells in the presence or absence of the indicated concentration of the selective GPCR antagonist.
A 60 nanomolar concentration of 5-HT2A receptor autoantibodies from TBI patients was incubated with N2A cells in the presence or absence of the indicated concentration of Gq11/PLC-gamma/IP3R antagonist or RhoA/Rho kinase pathway inhibitor.
Neurovascular 5-hydroxytryptamine (serotonin) 2A receptor (5-HT2AR) autoantibodies were previously reported to function as long-acting agonists in diabetic angiopathy and subsets of major depression, Parkinson's disease or dementia. The 5-HT2A receptor is highly expressed in specific brain regions underlying cognition, perception and mood regulation. Long-lasting 5-HT2A receptor activation by circulating autoantibodies might contribute to pathophysiology via central and peripheral mechanisms. Since the risk or incidence of Parkinson's disease, depression and dementia increase following traumatic brain injury (TBI), circulating neurotoxic autoantibodies (e.g., 5HT2AR) were tested, characterized and compared with autoantibodies from TBI patients vs. diabetic subsets with or without neurodegenerative disorders. Plasma IgG autoantibodies (e.g., 5-HT2AR autoantibodies) were obtained by protein-A affinity chromatography in ten male TBI patients mean age 64 years old.

[3] = tested on: N2A mouse neuroblastoma cells; assay: N2A cell survival (MTT) promoted by schizophrenia/psychosis plasma autoantibodies; type: cell-based; details: M100907 500 nM; LY379268 5 μM; pertussis toxin 100 ng/mL; LY294002 20 μM; 24 hours
Procedure: (§1) Methods: Plasma from five older adults with chronic schizophrenia and eight age-matched patients having another neuropsychiatric, immune or metabolic disorder was subjected to Protein-A affinity chromatography to obtain IgG autoantibodies. Mean neurite retraction (5 minutes) or cell survival (24 hours) was determined in mouse N2A neuroblastoma cells incubated with autoantibodies in the presence or absence of specific antagonists of the Gq/11/PLC/IP3R signaling pathway, Gi-coupled, beta-arrestin2-directed pathways, or LY379268.
N2A cell survival. MTT assay was performed 24 hours after incubation with test substances (Zimering M B, J Endocrinol Diabetes. 2018; 5(2): 10).
Serotonin 2A receptor activation leads to f3-arrestin-2-mediated desensitization and receptor internalization. However, β-arrestin-2 can also couple with diverse signaling pathways leading to enhanced cell proliferation and/or survival promotion.

N2A cells [4] = assay: N2A cell loss (MTT) induced by TBI patient autoantibodies; type: cell-based, mouse
Procedure: Cell survival was determined with MTT assay.
Mouse neuroblastoma cell loss. N2A cell loss was quantified using an MTT (3-(4,5-dimethylthiazol-2-yl)-2,5-diphenyltetrazolium bromide) tetrazolium reduction assay after overnight incubation with autoantibodies from TBI patients (Zimering M B, Endocrinol Diabetes Metab J. 2019 August; 3(4) pii: 118. Epub 2019 Aug. 14).

[5] = tested on: N2A mouse neuroblastoma cells; assay: Acute N2A neurite retraction induced by schizophrenia plasma autoantibodies; type: cell-based; details: for % AutoAB-induced neurite retraction: 20 nM Pt 1 schizophrenia AutoAB
Procedure: as §1
Acute neurite retraction assay. Percent of basal neurite length in N2A cells expressing one or more proximally-located dendrite-like process was determined after interval exposure to test substances (Zimering M B, J Endocrinol Diabetes. 2018; 5(2): 10).
A twenty nanomolar concentration of protein-A eluate fraction of plasma from Pt 1 with schizophrenia was incubated with N2A cells in the presence or absence of the indicated concentration of each Gq/11, GPCR antagonist. Results are the mean+/−SD of two experiments.
A forty nanomolar concentration of plasma autoantibodies (AutoAB) from Pt 1 or Pt, schizophrenia, was incubated in the presence or absence of the indicated concentration of RhoA/Rho kinase (ROCK) inhibitor, or individual antagonists of the Gq11/PLC/IP3R signaling pathway. […]

N2a neuroblastoma cells = assay: N2a cell survival with ZDF rat plasma protein G eluate; type: cell-based, mouse; details: 1 μM antagonist; 1 μg/mL (10 nM) eluate; 24 hours
Procedure: Plasma was applied to a Protein G affinity chromatography column (which binds most subclasses or rat IgG autoantibodies), washed extensively and eluted in low pH (2.7) buffer. The resulting eluate was incubated with N2a neuroblastoma cells at 37 degrees C. for 24 hours.

[6] = Observation of side effects and sedation in ZDF rats; type: in vivo, Zucker diabetic fatty (ZDF) rat
Procedure: Normally these rats will feed nearly continuously when given the opportunity. This sedating effect was reproducible following a second IP injection of 1 mg of the SEQ ID NO: 2 in each of the 3 ZDR rats. […] Serotonin plays a major role in wakefulness and arousal in the nervous system. It is possible that the administration of SEQ ID NO: 2 blocks the action of the neurotransmitter serotonin at multiple sites in the periphery and in the central nervous system, inducing sleep via antagonism of serotonin's role in wakefulness/arousal, independent of the pronounced blood pressure-lowering effect.

[7] = Blood glucose in ZDF rats; type: in vivo, Zucker diabetic fatty (ZDF) rat

Compound: COc1cc(CC(C)N)c(OC)cc1I (centres unmarked) [DOI, 1-[2,5-dimethoxy-4-iodophenyl]-2-aminopropane]
- concentration of DOI needed to evoke 25-30% neurite inhibition (N2A cells [1]; in the absence of LY379268): 10 µM
- concentration of DOI needed to evoke 25-30% neurite inhibition (N2A cells [1]; in the presence of (10 μM) LY379268): 5 µM
- peak neurite retraction (N2A cells [1]; saturating concentration, 20 μM): 40%

Compound: COc1cccc([C@H](O)C2CCN(CCc3ccc(F)cc3)CC2)c1OC [Peptide M100907]
- prevention of mean neurite retraction in TBI patient 5-HT2AR autoantibodies ([2]; M100907 200-670 nM, n=10 TBI patients, retraction alone 52±10%): 89-91%
- effect on TBI autoantibody-induced acute neurite retraction [2]: substantially prevented; also recorded: completely or nearly completed prevented
- % of autoantibody Neurite Retraction from TBI patients ([2]; antagonist 250 nM): 0%
- effect on autoantibody-induced N2A pro-survival/proliferation (words) [3]: significantly blocked
- effect alone on N2A cell survival (N2A cells [4]; 250 nM-500 nM, without autoantibodies): no significant effect
- effect on accelerated N2A cell death/loss by TBI autoantibodies (N2A cells [4]; M100907 250 nM (eight of eight patients), prazosin 850 nM (n=5), one-fiftieth dilution, 24 hours): substantially prevented; also recorded: nearly completely prevented
- effect on LY379268-potentiated SCZ autoantibody-induced neurite retraction ([5]; M100907 500 nM): significantly prevented
- effect on schizophrenia autoantibody-induced neurite retraction ([5]; M100907 two-hundred nanomolar, Y27632 ten micromolar, Y254890 one micromolar): completely prevented
- % AutoAB-induced neurite retraction ([5]; antagonist 200 nM): 0 ± 0%
- effect on accelerated neuroblastoma cell death induced by ZDF rat protein G eluate (N2a neuroblastoma cells): significantly reduced; also recorded: significant protection

Compound: O=C(CCCN1CCC2(CC1)C(=O)NCN2c1ccccc1)c1ccc(F)cc1 [Spiperone]
- effect on TBI autoantibody-induced acute neurite retraction [2]: substantially blocked
- % of autoantibody Neurite Retraction from TBI patients ([2]; antagonist 400 nM): 20%
- % AutoAB-induced neurite retraction ([5]; antagonist 500 nM): 17 ± 6%
- effect on accelerated neuroblastoma cell death induced by ZDF rat protein G eluate (N2a neuroblastoma cells): significantly reduced; also recorded: significant protection

Compound: SCLLADDN [Peptide 2]
- vomiting or other side effects during and for 15 days after administration ([6]; ZDF rats, alternate daily 2 mg/kg IP): did not experience vomiting or any other side effects
- side effects eighteen days after injection ([6]; three ZDF rats, approximately 1 mg single intraperitoneal injection): no untoward side effects were observed
- effect of repeated peptide injections on blood glucose concentration [7]: no evidence that the peptide injections caused a significant increase in blood glucose concentration
